What was measured:
[1] = test system: rat cardiac allograft; experiment: Protective effect of the compound (a) combined with FK506 on rat cardiac allograft; format: in vivo; conditions: single-drug group: FK506 0.32 mg/kg, daily gastric intubation for 14 days; Lewis donor to ACI recipient heterotopic cardiac transplantation
Method: Test 2: Protective Effect of the Compound (a) Combined with FK 506 on Rat Cardiac Allograft
Experiments were performed on male Lewis and ACI rats weighing 175-200 g. Rats were anesthetized with sodium pentobarbital (50 mg/kg, i.p.), and underwent allogeneic (Lewis donor to ACI recipient) heterotopic intra-abdominal cardiac transplantation. Experimental groups were divided into single-drug group and combined-drug group. Single-drug dose of FK506, which was prepared in a manner similar to that disclosed in EP-0184162, was 0.32 mg/kg. Combined-drug dose was FK506 (0.32 mg/kg)+the compound (a) (10 mg/kg). The grafted hearts were monitored by daily palpation where complete rejection was defined as the cessation of palpable contractile activity. Each drug was suspended in a solution of 0.5% methylcellulose, and administered by daily gastric intubation in a volume of 5 ml/kg of body weight for 14 days.
The combination of the compound (a) and an immunosuppressive agent (FK506) was examined to determine whether it could improve rat cardiac allograft survival.

Row | SMILES | melting point | MST (day) (Median Survival Time) [1]
1 | COc1ccc2oc(N(C=O)[C@@H](Cc3ccccn3)c3ncc(-c4ccc(-c5ccccc5)cc4)n3C)cc2c1 [Example 9, (1S)-N-[1-[5-(4-Biphenylyl)-1-methylimidazol-2-yl]-2-(2-pyridyl)-ethyl](5-methoxybenzo[b]furan-2-yl)formamide] | 150 to 152 °C | –
2 | COc1ccc2oc(N(C=O)[C@@H](Cc3ccccn3)c3ncc(-c4ccc(-n5ccnc5)cc4)n3C)cc2c1 [Example 51, (1S)-N-[1-[5-[4-(1-Imidazolyl)phenyl]-1-methylimidazol-2-yl]-2-(2-pyridyl)ethyl](5-methoxybenzo[b]furan-2-yl)formamide] | 151 to 153 °C | –
3 | Cn1c(-c2ccc([N+](=O)[O-])cc2)cnc1[C@H](Cc1ccccn1)N(C=O)c1cc2ccccc2o1 [Example 64, (1S)-(Benzo[b]furan-2-yl)-N-[1-[1-methyl-5-(4-nitrophenyl)imidazol-2-yl]-2-(2-pyridyl)ethyl]formamide] | 103 to 104 °C | –
4 | Cn1ccnc1-c1ccc(-c2cnc([C@H](Cc3ccccn3)N(C=O)c3cc4ccccc4[nH]3)n2C)cc1 [Example 22, (1S)-(Indol-2-yl)-N-[1-[5-[4-(1-methylimidazol-2-yl)phenyl]-1-methylimidazol-2-yl]-2-(2-pyridyl)ethyl]formamide] | 218 to 222 °C | –
5 | CCCn1c(-c2ccc(-n3ccnc3)cc2)cnc1[C@H](Cc1ccccn1)N(C=O)c1cc2cc(F)ccc2o1 [Example 56, (1S)-(5-Fluorobenzo[b]furan-2-yl)-N-[1-[5-[4-(1-imidazolyl)-phenyl]-1-propylimidazol-2-yl]-2-(2-pyridyl)ethyl]formamide] | 77 to 81 °C | –
6 | Cn1c(-c2ccc(-n3ccnc3)cc2)cnc1[C@H](Cc1ccccn1)N(C=O)c1cc2cc(C=O)ccc2o1 [Example 24, (1S)-(5-Formylbenzo[b]furan-2-yl)-N-[1-[5-[4-(1-imidazolyl)-phenyl]-1-methylimidazol-2-yl]-2-(2-pyridyl)ethyl]formamide] | 194 to 197 °C | –
7 | C=CC[C@@H]1/C=C(\C)C[C@H](C)C[C@H](OC)[C@H]2O[C@@](O)(C(=O)C(=O)N3CCCC[C@H]3C(=O)O[C@H](/C(C)=C/[C@@H]3CC[C@@H](O)[C@H](OC)C3)[C@H](C)[C@@H](O)CC1=O)[C@H](C)C[C@@H]2OC [FK506] | – | 10 days
8 | Cn1c(-c2ccc(-n3ccnc3)cc2)cnc1[C@H](Cc1ccccn1)N(C=O)c1cc2cc(C#N)ccc2o1 [Example 25, (1S)-(5-Cyanobenzo[b]furan-2-yl)-N-[1-[5-[4-(1-imidazolyl)-phenyl]-1-methylimidazol-2-yl]-2-(2-pyridyl)ethyl]formamide] | 174 to 176 °C | –
9 | Cn1c(-c2ccc(-c3ccccc3)cc2)cnc1[C@H](Cc1ccccn1)N(C=O)c1cc2cc(Cl)ccc2o1 [Example 10, (1S)-N-[1-[5-(4-Biphenylyl)-1-methylimidazol-2-yl]-2-(2-pyridyl)-ethyl](5-chlorobenzo[b]furan-2-yl)formamide] | 171 to 174 °C | –
10 | CCCn1c(-c2ccc(-n3ccnc3)cc2)cnc1[C@H](Cc1ccccn1)N(C=O)c1cc2cc(C(F)(F)F)ccc2o1 [Example 30, (1S)-N-[1-[5-[4-(1-Imidazolyl)phenyl]-1-propylimidazol-2-yl]-2-(2-pyridyl)ethyl][5-(trifluoromethyl)benzo[b]furan-2-yl]formamide] | 92 to 98 °C | –
11 | Cn1c(-c2cccs2)cnc1[C@H](Cc1ccccn1)N(C=O)c1cc2cc(Cl)ccc2o1 [Example 20, (1S)-(5-Chlorobenzo[b]furan-2-yl)-N-[1-[1-methyl-5-(2-thienyl)-imidazol-2-yl]-2-(2-pyridyl)ethyl]formamide] | 70 to 74 °C | –
12 | Cn1c(-c2ccc(-c3ccco3)cc2)cnc1[C@H](Cc1ccccn1)N(C=O)c1cc2cc(Cl)ccc2o1 [Example 16, (1S)-(5-Chlorobenzo[b]furan-2-yl)-N-[1-[5-[4-(2-furyl)phenyl]-1-methylimidazol-2-yl]-2-(2-pyridyl)ethyl]formamide] | 144 to 146 °C | –
13 | CCn1c(-c2ccc(-n3ccnc3)cc2)cnc1[C@H](Cc1ccccn1)N(C=O)c1cc2cc(C(F)(F)F)ccc2o1 [Example 29, (1S)-N-[1-[1-Ethyl-5-[4-(1-imidazolyl)phenyl]imidazol-2-yl]-2-(2-pyridyl)ethyl][5-(trifluoromethyl)benzo[b]furan-2-yl]formamide] | 85 to 89 °C | –

Continued, in another order:

Row | melting point | SMILES | MST (day) (Median Survival Time) [1]
14 | 207 to 208 °C | Cn1c(-c2ccc([N+](=O)[O-])cc2)cnc1[C@H](Cc1ccccn1)N(C=O)c1cc2cc(F)ccc2o1 [Example 63, (1S)-(5-Fluorobenzo[b]furan-2-yl)-N-[1-[1-methyl-5-(4-nitrophenyl)imidazol-2-yl]-2-(2-pyridyl)ethyl]formamide] | –
15 | 197 to 199 °C | Cn1c(-c2ccc(-n3ccnc3)cc2)cnc1[C@H](Cc1ccccn1)N(C=O)c1cc2cc(Br)ccc2o1 [Example 46, (1S)-(5-Bromobenzo[b]furan-2-yl)-N-[1-[5-[4-(1-imidazolyl)-phenyl]-1-methylimidazol-2-yl]-2-(2-pyridyl)ethyl]formamide] | –
16 | 96 to 99 °C | Cn1c(-c2ccc(N3CCOCC3)cc2)cnc1[C@H](Cc1ccccn1)N(C=O)c1nc2cc(Cl)ccc2s1 [Example 6, (1S)-(5-Chlorobenzothiazol-2-yl)-N-[1-[1-methyl-5-(4-morpholinophenyl)imidazol-2-yl]-2-(2-pyridyl)ethyl]formamide] | –
17 | 125 to 127 °C | Cc1ccc2oc(N(C=O)[C@@H](Cc3ccccn3)c3ncc(-c4ccc(N5CCOCC5)cc4)n3C)cc2c1 [Example 5, (1S)-(5-Methylbenzo[b]furan-2-yl)-N-[1-[1-methyl-5-(4-morpholinophenyl)imidazol-2-yl]-2-(2-pyridyl)ethyl]formamide] | –
18 | 134 to 135 °C | Cn1c(-c2ccc(N3CCOCC3)c(F)c2)cnc1[C@H](Cc1ccccn1)N(C=O)c1cc2cc(Cl)ccc2o1 [Example 19, (1S)-(5-Chlorobenzo[b]furan-2-yl)-N-[1-[5-(3-fluoro-4-morpholinophenyl)-1-methylimidazol-2-yl]-2-(2-pyridyl)ethyl]formamide] | –
19 | 63 to 73 °C | Cn1c(-c2ccc(-n3ccnc3)cc2)cnc1[C@H](Cc1ccccn1)N(C=O)c1cc2cc(Cl)ccc2o1 [Example 49, (1S)-(5-Chlorobenzo[b]furan-2-yl)-N-[1-[5-[4-(1-imidazolyl)-phenyl]-1-methylimidazol-2-yl]-2-(2-pyridyl)ethyl]formamide] | –
20 | 93 to 99 °C | CCCn1c(-c2ccc(-n3ccnc3)cc2)cnc1[C@H](Cc1ccccn1)N(C=O)c1cc2cc(Br)ccc2o1 [Example 44, (1S)-(5-Bromobenzo[b]furan-2-yl)-N-[1-[5-[4-(1-imidazolyl)phenyl]-1-propylimidazol-2-yl]-2-(2-pyridyl)ethyl]formamide] | –
21 | 130 to 132 °C | Cn1c(-c2ccc(N3CCOCC3)cc2)cnc1[C@H](Cc1ccccn1)N(C=O)c1cc2cc(F)ccc2o1 [Example 4, (1S)-(5-Fluorobenzo[b]furan-2-yl)-N-[1-[1-methyl-5-(4-morpholinophenyl)imidazol-2-yl]-2-(2-pyridyl)ethyl]formamide] | –
22 | 173 to 174 °C | Cn1c(-c2ccc(N3CCOCC3)cc2)cnc1[C@H](Cc1ccccn1)N(C=O)c1cc2cc(Br)ccc2o1 [Example 2, (1S)-(5-Bromobenzo[b]furan-2-yl)-N-[1-[1-methyl-5-(4-morpholinophenyl)imidazol-2-yl]-2-(2-pyridyl)ethyl]formamide] | –
